From patent US8158647B2, “Substituted pyrrolopyridines and pyrazolopyridines as kinase modulators” (SGX Pharmaceuticals, Inc., priority 2007, dated 2012)

How the values were obtained:
[1] = target: T1, purified and unphosphorylated T315I Abl kinase domain (ABL_T315I_0P) (Mus musculus, UniProt P00520, T315I); assay: c-Abl T315I (unphosphorylated kinase domain) pyruvate kinase/lactate dehydrogenase coupled enzyme assay; type: biochemical; conditions: 10 μM ATP
T1 construct: The c-Abl T3151 KD (kinase domain) was purified as follows; Met-Ser-Leu (vector-derived residues) (N); made in house; host or cells: E. coli BL21(DE3) strains (Codon+RIL, or pSA0145 for the lambda phosphatase co-expression plasmid)
T1 sequence (P00520 242-493 T315I limits assumed): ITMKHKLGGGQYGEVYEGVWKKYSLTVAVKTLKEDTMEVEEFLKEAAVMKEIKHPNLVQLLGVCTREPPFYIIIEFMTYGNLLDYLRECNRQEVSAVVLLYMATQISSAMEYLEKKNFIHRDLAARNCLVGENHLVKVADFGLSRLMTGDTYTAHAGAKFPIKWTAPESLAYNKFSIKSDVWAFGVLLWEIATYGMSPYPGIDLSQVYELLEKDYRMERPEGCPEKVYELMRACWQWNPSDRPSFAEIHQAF

ABL P210WT BAF3 cells = target: T2, ABL P210WT BAF3 cells (Homo sapiens, UniProt P00519); assay: 96-well XTT cell survival assay, BaF3 ABL P210WT; type: cell-based; conditions: ABL P210 WT, 72 hours, read-out: CELL BIO ABL P210WT BAF3 XTT (IC50)
T2 construct: ABL P210WT BAF3; fused on or other part: P11274 (Breakpoint cluster region protein)
Procedure, shortened: (§1)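 Ba/F3 cells in RPMI 1640 with 10% FBS (IL-3 medium for maintenance) were seeded at 5000-8000 cells/well and exposed to compound dilutions in duplicate for 72 h at 37° C. Viability read by XTT/PMS, absorbance 405 nm minus 650 nm after 2-6 h.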

ABL T315I BAF3 cells = target: T3, ABL T315I BAF3 cells (Homo sapiens, UniProt P00519, T315I, cells depend on it); assay: 96-well XTT cell survival assay, BaF3 ABL T315I; type: cell-based; conditions: 72 hours, read-out: CELL BIO ABL T315I BAF3 XTT (IC50)
T3 construct: ABL T315I BAF3; fused on or other part: P11274 (Breakpoint cluster region protein)
Procedure, shortened: as §1

Structure (SMILES) | ABL_T315I_0P (IC50) [1] | GI50 (ABL P210WT BAF3 cells) | GI50 (ABL T315I BAF3 cells)
COc1ccccc1-c1c[nH]c2ncc(-c3cncc(C(O)C(=O)N(C)C)c3)c(Cl)c12 (stereo not drawn) [2-{5-[4-Chloro-3-(2-methoxy-phenyl)-1H-pyrrolo[2,3-b]pyridin-5-yl]-pyridin-3-yl}-2-hydroxy-N,N-dimethyl-acetamide] | D (<0.01 μM) | < 0.01 µM | < 0.01 µM
CN(C)C(=O)c1cncc(-c2cnc3[nH]nc(-c4ccccc4)c3c2Cl)c1 [5-(4-Chloro-3-phenyl-1H-pyrazolo[3,4-b]pyridin-5-yl)-N,N-dimethyl-nicotinamide] | B (1.0-0.1 μM) | > 1 µM | > 1 µM
CN(C)C(=O)c1cncc(-c2cnc3[nH]cc(-c4cccc(F)c4F)c3c2Cl)c1 [5-[4-Chloro-3-(2,3-difluoro-phenyl)-1H-pyrrolo[2,3-b]pyridin-5-yl]-N,N-dimethyl-nicotinamide] | D (<0.01 μM) | 0.1 to 1 µM | 0.1 to 1 µM
COc1ccccc1-c1c[nH]c2ncc(-c3cccc(C(=O)N(C)C)c3)c(Cl)c12 [3-[4-Chloro-3-(2-methoxy-phenyl)-1H-pyrrolo[2,3-b]pyridin-5-yl]-N,N-dimethyl-benzamide] | D (<0.01 μM) | 0.01 to 0.1 µM | 0.01 to 0.1 µM
COc1ccccc1-c1c[nH]c2ncc(-c3cccc(C(=O)N(C)C)c3)c(C)c12 [3-[3-(2-Methoxy-phenyl)-4-methyl-1H-pyrrolo[2,3-b]pyridin-5-yl]-N,N-dimethyl-benzamide] | D (<0.01 μM) | 0.01 to 0.1 µM | 0.01 to 0.1 µM
CN(C)C(=O)C(=O)c1cncc(-c2cnc3[nH]cc(-c4cccc(F)c4F)c3c2Cl)c1 [2-{5-[4-Chloro-3-(2,3-difluoro-phenyl)-1H-pyrrolo[2,3-b]pyridin-5-yl]-pyridin-3-yl}-N,N-dimethyl-2-oxo-acetamide] | C (0.1-0.01 μM) | > 1 µM | > 1 µM
COc1ccccc1-c1c[nH]c2ncc(-c3cnc(N)c(C(=O)N(C)C)c3)c(Cl)c12 [2-Amino-5-[4-chloro-3-(2-methoxy-phenyl)-1H-pyrrolo[2,3-b]pyridin-5-yl]-N,N-dimethyl-nicotinamide] | D (<0.01 μM) | < 0.01 µM | < 0.01 µM
COc1ccncc1-c1c[nH]c2ncc(-c3cncc(C(O)C(=O)N(C)C)c3)c(Cl)c12 (stereo not drawn) [2-{5-[4-Chloro-3-(4-methoxy-pyridin-3-yl)-1H-pyrrolo[2,3-b]pyridin-5-yl]-pyridin-3-yl}-2-hydroxy-N,N-dimethyl-acetamide] | D (<0.01 μM) | 0.1 to 1 µM | 0.1 to 1 µM
COc1ncccc1-c1c[nH]c2ncc(-c3cncc(C(O)C(=O)N(C)C)c3)c(Cl)c12 (stereo not drawn) [2-{5-[4-Chloro-3-(2-methoxy-pyridin-3-yl)-1H-pyrrolo[2,3-b]pyridin-5-yl]-pyridin-3-yl}-2-hydroxy-N,N-dimethyl-acetamide] | D (<0.01 μM) | 0.01 to 0.1 µM | 0.1 to 1 µM
NC(=O)C(O)c1cncc(-c2cnc3[nH]cc(-c4ccccc4F)c3c2Cl)c1 (stereo not drawn) | D (<0.01 μM) | > 1 µM | > 1 µM
